The values below come from patent publication US20230131535A1, “ARYLMETHYLENE AROMATIC COMPOUNDS AS Kv1.3 POTASSIUM SHAKER CHANNEL BLOCKERS” (D. E. Shaw Research, LLC, priority 2019, published 2023).

This experiment deals with T1, Kv1.3 potassium channel (Homo sapiens, UniProt P22001).
T1 construct: expressed in transfected cells
T1 sequence (P22001 whole entry): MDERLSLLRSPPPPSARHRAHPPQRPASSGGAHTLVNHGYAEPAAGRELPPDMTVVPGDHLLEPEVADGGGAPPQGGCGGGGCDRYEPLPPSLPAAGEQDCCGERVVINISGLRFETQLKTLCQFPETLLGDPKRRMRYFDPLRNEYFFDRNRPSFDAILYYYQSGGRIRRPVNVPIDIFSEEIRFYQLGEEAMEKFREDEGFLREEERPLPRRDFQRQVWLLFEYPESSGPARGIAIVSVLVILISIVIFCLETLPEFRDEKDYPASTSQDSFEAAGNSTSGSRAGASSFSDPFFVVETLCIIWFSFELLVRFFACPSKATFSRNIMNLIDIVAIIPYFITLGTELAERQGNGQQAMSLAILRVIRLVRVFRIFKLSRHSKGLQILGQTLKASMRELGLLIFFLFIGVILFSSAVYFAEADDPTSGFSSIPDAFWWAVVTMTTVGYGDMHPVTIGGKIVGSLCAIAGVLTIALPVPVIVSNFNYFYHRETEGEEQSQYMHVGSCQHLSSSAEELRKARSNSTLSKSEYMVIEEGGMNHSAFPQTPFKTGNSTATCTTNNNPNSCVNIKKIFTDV
In words: Kv1.3 potassium channel blocker activity, automated whole-cell patch clamp (Patchliner). In kind it is cell-based. Conditions: Table 6; CHO-K1 cells stably expressing Kv1.3; whole cell current, pulses -90 mV to +40 mV; read-out: Kv1.3_IC50. How it is done:
Example 67. Evaluation of Kv1.3 Potassium Channel Blocker Activities
The assay described below is used to evaluate the disclosed compound's activities as Kv1.3 potassium channel blockers.
CHO-K1 cells stably expressing Kv1.3 were grown in DMEM containing 10% heat-inactivated FBS, 1 mM Sodium Pyruvate, 2 mM L-Glutamine and G418 (500 μg/ml). Cells were grown in culture flasks at 37° C. in a 5% CO2-humidified incubator.
The cells were bathed in an extracellular solution containing 140 mM NaCl, 4 mM KCl, 2 mM CaCl2), 1 mM MgCl2, 5 mM Glucose, 10 mM HEPES; pH adjusted to 7.4 with NaOH; 295-305 mOsm. The internal solution contained 50 mM KCl, 10 mM NaCl, 60 mM KF, 20 mM EGTA, 10 mM HEPES; pH adjusted to 7.2 with KOH; 285 mOsm. All compounds were dissolved in DMSO at 30 mM. Compound stock solutions were freshly diluted with external solution to concentrations of 30 nM, 100 nM, 300 nM, 1 μM, 3 μM, 10 μM, 30 μM and 100 μM. The highest content of DMSO (0.3%) was present in 100 μM.
The currents were evoked by applying 100 ms depolarizing pulses from −90 mV (holding potential) to +40 mV were applied with 0.1 Hz frequency. Control (compound-free) and compound pulse trains for each compound concentration applied contained 20 pulses. 10 second breaks were used between pulse trains (see Table 4 below).
Whole cell current recordings and compound application were enabled by means of an automated patch clamp platform Patchliner (Nanion Technologies GmbH). EPC 10 patch clamp amplifier (HIEKA Elektronik Dr. Schulze GmbH) along with Patchmaster software (HIEKA Elektronik Dr. Schulze GmbH) was used for data acquisition. Data were sampled at 10 kHz without filtering. Passive leak currents were subtracted online using a P/4 procedure (HEKA Elektronik Dr. Schulze GmbH). Increasing compound concentrations were applied consecutively to the same cell without washouts in between. Total compound incubation time before the next pulse train was not longer than 10 seconds. Peak current inhibition was observed during compound equilibration.
AUC and peak values were obtained with Patchmaster (HEKA Elektronik Dr. Schulze GmbH). To determine IC50, the last single pulse in the pulse train corresponding to a given compound concentration was used. Obtained AUC and peak values in the presence of compound were normalized to control values in the absence of compound. Using Origin (OridinLab), IC50 was derived from data fit to Hill equation: Icompound/Icontrol=(100−A)/(1+([compound]/IC50)nH)+A, where IC50 value is the concentration at which current inhibition is half-maximal, [compound] is the applied compound concentration, A is the fraction of current that is not blocked and nH is the Hill coefficient.
For orientation: In patch-clamp work, channel activity is measured electrically.
For orientation: IC50 means the concentration needed to halve the response being measured. Turning to `Cc1cnccc1C(O)c1c(O)ccc(Cl)c1Cl` (single isomer, unassigned) [Compound 43, 3,4-dichloro-2-[hydroxy(3-methylpyridin-4-yl)methyl]phenol], the IC50 is less than 30 µM. `Nc1cc(C(O)c2c(O)ccc(Cl)c2Cl)ccn1` (single isomer, unassigned) [Compound 44, 2-[(2-aminopyridin-4-yl)(hydroxy)methyl]-3,4-dichlorophenol]: the concentration for half-maximal inhibition (IC50) is less than 30 µM.

For `NCc1cc(C(O)c2c(O)ccc(Cl)c2Cl)ccn1` (single isomer, unassigned) [Compound 47, 2-((2-(aminomethyl)pyridin-4-yl)(hydroxy)methyl)-3,4-dichlorophenol], the IC50 is less than 30 µM. The figure for `O=C(NC(c1ccncc1)c1c(O)ccc(Cl)c1Cl)C1CNC1` (single isomer, unassigned) [Compound 49, N-[(2,3-dichloro-6-hydroxyphenyl)(pyridin-4-yl)methyl]azetidine-3-carboxamide] is less than 10 µM; for `O=C(N[C@@H](c1ccncc1)c1c(O)ccc(Cl)c1Cl)[C@@H]1CCCN1` (single isomer, unassigned) [Compound 65] it is less than 30 µM; for `O=C(N[C@H](c1ccncc1)c1c(O)ccc(Cl)c1Cl)[C@H]1CCCN1` (single isomer, unassigned) [Compound 66] it is less than 30 µM.

For `O=C(N[C@@H](c1ccncc1)c1c(O)ccc(Cl)c1Cl)[C@H]1CCCN1` (single isomer, unassigned) [Compound 67], the 50% inhibitory concentration (IC50) was less than 10 µM.

As for `CN1CC(C(=O)NC(c2ccncc2)c2c(O)ccc(Cl)c2Cl)C1` (single isomer, unassigned) [Compound 72, N-[(2,3-dichloro-6-hydroxyphenyl)(pyridin-4-yl)methyl]-1-methylazetidine-3-carboxamide], the IC50 is less than 1 µM.

Turning to `CN1CC(C(=O)NC(c2ccncc2)c2c(O)ccc(Cl)c2Cl)C1` (single isomer, unassigned) [Compound 75, N-[(2,3-dichloro-6-hydroxyphenyl)(pyridin-4-yl)methyl]-1-methylazetidine-3-carboxamide], the half-inhibitory concentration (IC50) was less than 10 µM. For the compound `NC(c1ccccc1)c1c(O)ccc(Cl)c1Cl` (stereo not shown) [Compound 3, 2-[amino(phenyl)methyl]-3,4-dichlorophenol], the half-inhibitory concentration (IC50) is less than 30 µM. With `NC(=O)c1cnccc1Cc1cc(Cl)c(Cl)cc1O` [Compound 4, 4-[(4,5-dichloro-2-hydroxyphenyl)methyl]pyridine-3-carboxamide], the IC50 is less than 10 µM. `NC(c1ccccc1)c1cc(Cl)c(Cl)cc1O` (stereo not shown) [Compound 5, 2-[amino(phenyl)methyl]-4,5-dichlorophenol]: the IC50 was less than 30 µM.

For the compound `NC(c1cn[nH]c1)c1c(O)ccc(Cl)c1Cl` (stereo not shown) [Compound 7, 2-[amino(1H-pyrazol-4-yl)methyl]-3,4-dichlorophenol], the IC50 was less than 30 µM. Regarding `NC(c1cn[nH]c1)c1cc(Cl)c(Cl)cc1O` (stereo not shown) [Compound 10, 2-[amino(1H-pyrazol-4-yl)methyl]-4,5-dichlorophenol], the IC50 was less than 10 µM. The figure for `Nc1ccc(C(N)c2cc(Cl)c(Cl)cc2O)cn1` (stereo not shown) [Compound 12, 2-[amino(6-aminopyridin-3-yl)methyl]-4,5-dichlorophenol] is less than 10 µM; for `NC(=O)c1ccc(C(N)c2cc(Cl)c(Cl)cc2O)cc1` (stereo not shown) [Compound 13, 4-[amino(4,5-dichloro-2-hydroxyphenyl)methyl]benzamide] it is less than 10 µM; for `Nc1ccc(C(N)c2c(O)ccc(Cl)c2Cl)cn1` (stereo not shown) [Compound 14, 2-[amino(6-aminopyridin-3-yl)methyl]-3,4-dichlorophenol] it is less than 10 µM. Turning to `NC(c1ccc(=O)[nH]c1)c1cc(Cl)c(Cl)cc1O` (stereo not shown) [Compound 15, 5-[amino(4,5-dichloro-2-hydroxyphenyl)methyl]-1,2-dihydropyridin-2-one], the concentration for half-maximal inhibition (IC50) was less than 10 µM. The figure for `N#Cc1ccc(C(N)c2cc(Cl)c(Cl)cc2O)cc1` (stereo not shown) [Compound 16, 4-[amino(4,5-dichloro-2-hydroxyphenyl)methyl]benzonitrile] is less than 10 µM. Under `CC(=O)NC(c1ccncc1)c1cc(Cl)c(Cl)cc1O` (stereo not shown) [Compound 19, N-[(4,5-dichloro-2-hydroxyphenyl)(pyridin-4-yl)methyl]acetamide] stands less than 10 µM.

With `Oc1ccc(Cl)c(Cl)c1Cc1ccncc1` [Compound 22, 3,4-dichloro-2-[(pyridin-4-yl)methyl]phenol], the IC50 was less than 10 µM.

Consider `NC(=O)c1cc(C(O)c2c(O)ccc(Cl)c2Cl)ccn1` (stereo not shown) [Compound 23, 4-[(2,3-dichloro-6-hydroxyphenyl)(hydroxy)methyl]pyridine-2-carboxamide], for which the half-maximal inhibitory concentration (IC50) is less than 10 µM. For the compound `NC(=O)c1cc(Cc2c(O)ccc(Cl)c2Cl)ccn1` [Compound 24, 4-[(2,3-dichloro-6-hydroxyphenyl)methyl]pyridine-2-carboxamide], the IC50 was less than 10 µM. `CC(c1ccncc1)c1c(O)ccc(Cl)c1Cl` (stereo not shown) [Compound 25, 3,4-dichloro-2-[1-(pyridin-4-yl)ethyl]phenol]: the IC50 was less than 10 µM.

In the case of `N#Cc1cc(C(O)c2c(O)ccc(Cl)c2Cl)ccn1` (stereo not shown) [Compound 30, 4-[(2,3-dichloro-6-hydroxyphenyl)(hydroxy)methyl]pyridine-2-carbonitrile], the IC50 is less than 10 µM. Under `Oc1ccc2ccccc2c1C(O)c1ccncc1` (stereo not shown) [Compound 32, 1-[hydroxyl(pyridin-4-yl)methyl]naphthalen-2-ol] stands less than 10 µM; under `CC(=O)NCc1cc(C(O)c2c(O)ccc(Cl)c2Cl)ccn1` (stereo not shown) [Compound 33, N-([4-[(2,3-dichloro-6-hydroxyphenyl)(hydroxy)methyl]pyridin-2-yl]methyl)acetamide], less than 10 µM. With `Cc1cc(C(O)c2c(O)ccc(Cl)c2Cl)ccn1` (stereo not shown) [Compound 35, 3,4-dichloro-2-[hydroxy(2-methylpyridin-4-yl)methyl]phenol], the IC50 is less than 10 µM. With `Oc1ccc(Cl)c(Cl)c1C(O)c1ccc2cc[nH]c2c1` (stereo not shown) [Compound 48, 3,4-dichloro-2-[hydroxy(1H-indol-6-yl)methyl]phenol], the half-maximal inhibitory concentration (IC50) is less than 10 µM. Take `Oc1ccc(Cl)c(Cl)c1C(O)c1cccc2[nH]ccc12` (stereo not shown) [Compound 51, 3,4-dichloro-2-[hydroxy(1H-indol-4-yl)methyl]phenol]: the IC50 was less than 10 µM. Under `Oc1ccc(Cl)c(Cl)c1C(O)c1ccc2[nH]ccc2c1` (stereo not shown) [Compound 52, 3,4-dichloro-2-[hydroxy(1H-indol-5-yl)methyl]phenol] stands less than 30 µM. `Oc1ccc(Cl)c(Cl)c1C(O)c1cnccn1` (stereo not shown) [Compound 54, 3,4-dichloro-2-[hydroxy(pyrazin-2-yl)methyl]phenol]: the half-maximal inhibitory concentration (IC50) is less than 10 µM. As for `Oc1ccc(Cl)c(Cl)c1C(O)c1ccncn1` (stereo not shown) [Compound 55, 3,4-dichloro-2-[hydroxy(pyrimidin-4-yl)methyl]phenol], the IC50 is less than 10 µM. For `Oc1ccc(Cl)c(Cl)c1C(O)c1cn[nH]c1` (stereo not shown) [Compound 56, 3,4-dichloro-2-[hydroxy(1H-pyrazol-4-yl)methyl]phenol], the IC50 was less than 10 µM. The figure for `O=C(NC(c1ccncc1)c1c(O)ccc(Cl)c1Cl)c1cn[nH]c1` (stereo not shown) [Compound 57, N-[(2,3-dichloro-6-hydroxyphenyl)(pyridin-4-yl)methyl]-1H-pyrazole-4-carboxamide] is less than 30 µM; for `Oc1ccc(Cl)c(Cl)c1C(O)c1ccnc(N2CCOCC2)c1` (stereo not shown) [Compound 58, 3,4-dichloro-2-[hydroxy[2-(morpholin-4-yl)pyridin-4-yl]methyl]phenol] it is less than 10 µM. The figure for `Oc1ccc(Cl)c(Cl)c1C(O)c1c[nH]c2ccccc12` (stereo not shown) [Compound 59, 3,4-dichloro-2-[hydroxy(1H-indol-3-yl)methyl]phenol] is less than 30 µM; for `Cn1cc(C(O)c2c(O)ccc(Cl)c2Cl)ccc1=O` (stereo not shown) [Compound 60, 5-[(2,3-dichloro-6-hydroxyphenyl)(hydroxy)methyl]-1-methyl-1,2-dihydropyridin-2-one] it is less than 1 µM; for `O=C(c1ccncc1)c1c(O)ccc(Cl)c1Cl` [Compound 61, 3,4-dichloro-2-(pyridine-4-carbonyl)phenol] it is less than 10 µM.

Consider `Nc1ccc(Cl)c(Cl)c1C(=O)c1ccncc1` [Compound 62, 3,4-dichloro-2-(pyridine-4-carbonyl)aniline], for which the IC50 is less than 10 µM.
